According to PubChem BioAssay (NCI):
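How tested: cells in 96-well plates exposed to compound for 48 hours at five concentrations. The concentration for full growth arrest is given as TGI.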

How the values were obtained:
Assay in all cases: NCI-60 cell line screen, 48 h
[1] = tested on: 786-0 renal
[2] = tested on: A549 NSCLC
[3] = tested on: BT-549 breast
[4] = tested on: COLO 205 colon
[5] = tested on: EKVX NSCLC
[6] = tested on: HCC-2998 colon
[7] = tested on: HCT-15 colon
[8] = tested on: IGROV1 ovarian
[9] = tested on: MCF7 breast
[10] = tested on: MDA-MB-435
[11] = tested on: MDA-N
[12] = tested on: MOLT-4 leukemia
[13] = tested on: NCI-H226 lung
[14] = tested on: RXF 393 renal
[15] = tested on: SK-OV-3 ovarian
[16] = tested on: SNB-75 CNS
[17] = tested on: SR leukemia

Compound	TGI [1]	TGI [2]	TGI [3]	TGI [4]	TGI [5]	TGI [6]	TGI [7]	TGI [8]	TGI [9]	TGI [10]	TGI [11]	TGI [12]	TGI [13]	TGI [14]	TGI [15]	TGI [16]	TGI [17]
Cc1cc(C)c(-n2[nH]c(=O)n(C)c2=O)c(C)c1	> 100 µM	> 100 µM	> 100 µM	> 100 µM	> 100 µM	> 100 µM	> 100 µM	> 100 µM	> 100 µM	> 100 µM	> 100 µM	> 100 µM	> 100 µM	> 100 µM	> 100 µM	> 100 µM	> 100 µM
COC(=O)[C@@H]1[C@H](OC(C)=O)CCC2[C@@]3(C[C@@H](c4ccoc4)O[C@@H]3OC)[C@H](C)CC[C@]21C(=O)OC (stereo partly drawn)	> 25 µM	> 25 µM	> 25 µM	> 25 µM	> 25 µM	> 25 µM	> 25 µM	> 25 µM	> 25 µM	> 25 µM	> 25 µM	> 25 µM	> 25 µM	> 25 µM	> 25 µM	> 25 µM	> 25 µM
CCC(CCCN)Nc1cc(OC)cc2c(C)ccnc12 (stereo not drawn)	28.8 µM	29.2 µM	28.5 µM	47.5 µM	36.3 µM	44.9 µM	58.4 µM	36.6 µM	29.3 µM	28 µM	34.1 µM	40 µM	28.3 µM	27 µM	26.4 µM	25.3 µM	31.6 µM
CC(C)(C)OC(=O)N/N=C(/N)Cc1ccc(Cl)cc1	> 100 µM	> 100 µM	> 100 µM	> 100 µM	> 100 µM	> 100 µM	> 100 µM	> 100 µM	> 100 µM	> 100 µM	> 100 µM	> 100 µM	> 100 µM	> 100 µM	> 100 µM	> 100 µM	> 100 µM
CCOC(=O)/C(C=Nc1c(C)n(C)n(-c2ccccc2)c1=O)=C(/C)O	> 100 µM	> 100 µM	> 100 µM	> 100 µM	> 100 µM	> 100 µM	> 100 µM	> 100 µM	> 100 µM	> 100 µM	> 100 µM	> 100 µM	> 100 µM	> 100 µM	> 100 µM	> 100 µM	> 100 µM
COC1=CC(=O)C2=C(C1=O)[C@H]1CC[C@]3(C)[C@@H](O)CC[C@H]3[C@@H]1CC2	37.8 µM	34.7 µM	31.8 µM	22.5 µM	30.5 µM	42.8 µM	31.9 µM	44.7 µM	30.7 µM	33.3 µM	32.8 µM	20.8 µM	31.5 µM	46.5 µM	> 100 µM	36.5 µM	55.4 µM
COc1ccc(C(=O)/C=C/c2ccc(O)c(O)c2)c(OC)c1	44.3 µM	97.3 µM	20.4 µM	28.8 µM	> 79.6 µM	3.4 µM	24.3 µM	> 100 µM	14.1 µM	> 48.5 µM	> 46.2 µM	> 38.9 µM	22.3 µM	39.2 µM	> 67.9 µM	29.5 µM	6.54 µM
CCOC(=O)c1c(C)nc2c1c(CN(C)C)c(O)c1[nH]c(C)c(C)nc12	49.5 µM	> 100 µM	76 µM	40.4 µM	92 µM	51 µM	> 100 µM	> 100 µM	52.1 µM	99.7 µM	54.7 µM	85.6 µM	62.1 µM	65.7 µM	92.3 µM	60.7 µM	51.5 µM
Oc1ccc(-c2cc(-c3cc(-c4ccc(O)cc4)no3)on2)cc1	> 100 µM	> 100 µM	> 100 µM	> 100 µM	> 100 µM	> 100 µM	> 100 µM	> 100 µM	> 100 µM	> 100 µM	> 100 µM	9.52 µM	> 100 µM	> 100 µM	> 100 µM	> 100 µM	> 31.6 µM
